{
  "source": "paper PMC6556568",
  "about": "“A surface-exposed GH26 β-mannanase from Bacteroides ovatus: Structure, role, and phylogenetic analysis of BoMan26B” (The Journal of Biological Chemistry, 2019)",
  "target": "T1, BoMan26B (Bacteroides ovatus, UniProt A0ABU3IS29)",
  "T1 construct": "gene RO706_12620; signal peptide (first 19 residues) removed; recombinant in E. coli BL21(DE3), purified on a HisTrap column; residues 37-361 modelled; catalytic Glu-201 and Glu-291",
  "T1 sequence (A0ABU3IS29 20-360)": "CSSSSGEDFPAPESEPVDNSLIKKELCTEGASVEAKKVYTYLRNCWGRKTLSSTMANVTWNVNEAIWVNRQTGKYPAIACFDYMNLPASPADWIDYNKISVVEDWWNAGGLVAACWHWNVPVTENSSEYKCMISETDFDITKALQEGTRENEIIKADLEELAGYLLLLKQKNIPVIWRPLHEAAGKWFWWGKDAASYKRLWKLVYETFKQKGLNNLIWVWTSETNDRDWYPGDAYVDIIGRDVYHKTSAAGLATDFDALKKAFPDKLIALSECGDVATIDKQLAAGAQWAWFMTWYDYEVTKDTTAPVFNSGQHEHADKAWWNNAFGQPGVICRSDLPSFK",
  "test": "hydrolysis in H2^[…], MALDI-TOF MS and HPAEC-PAD",
  "format": "biochemical",
  "details": "2 mM M6, 1 mM CaCl2, potassium phosphate pH 6.5, 8 °C",
  "data": [
    {"smiles": "OC[C@H]1O[C@@H](O[C@H]2[C@H](O)[C@H](O)[C@H](O[C@H]3[C@H](O)[C@H](O)[C@H](O[C@H]4[C@H](O)[C@H](O)[C@H](O[C@H]5[C@H](O)[C@H](O)[C@H](O[C@H]6[C@H](O)[C@H](O)C(O)O[C@@H]6CO)O[C@@H]5CO)O[C@@H]4CO)O[C@@H]3CO)O[C@@H]2CO)[C@@H](O)[C@@H](O)[C@@H]1O", "note": "(stereo partly shown) [M6, mannohexaose]", "values": [
      {"measurement": "hydrolysis in H2^18O, MALDI-TOF MS and HPAEC-PAD", "result": "The main hydrolytic events of BoMan26B on M6 result in production of mannose"}
    ]}
  ]
}
